Values of other authors as cited in patent US20200113856A1, “NON-PRESCRIPTION MOTION SICKNESS MEDICATION CONTAINING AN ANALGESIC, AN H2 BLOCKER, AND AT LEAST ONE ANTACID” (priority 2018, published 2020).

Assays:
blood pressure = settings: several types of rat models susceptible to salt-sensitive hypertension, in contrast with sodium chloride
reflux esophagitis = settings: patients with reflux esophagitis
platelet thromboxane = settings: high-dose, throughout the dosing interval
risk of stroke = settings: in vivo
histamine H2 receptors = histamine H2 receptors (Homo sapiens, UniProt P25021); settings: equimolar basis
motion sickness = settings: patch worn behind the ear

Chain of histamine H2 receptors (P25021 whole entry): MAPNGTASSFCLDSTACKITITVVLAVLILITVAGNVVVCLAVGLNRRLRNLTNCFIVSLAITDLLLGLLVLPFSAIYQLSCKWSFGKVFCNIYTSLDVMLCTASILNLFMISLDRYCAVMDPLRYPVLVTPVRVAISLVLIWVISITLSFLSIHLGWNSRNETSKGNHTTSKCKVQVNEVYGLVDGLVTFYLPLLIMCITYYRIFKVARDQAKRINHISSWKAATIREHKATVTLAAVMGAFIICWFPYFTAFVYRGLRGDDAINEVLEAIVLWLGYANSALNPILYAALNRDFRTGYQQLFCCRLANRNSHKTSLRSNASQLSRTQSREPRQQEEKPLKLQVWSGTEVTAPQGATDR

Structure (SMILES): O=C([O-])O.[Na+] [Sodium bicarbonate, sodium hydrogen carbonate]
- effect on blood pressure (blood pressure): no effect

Structure (SMILES): CNC(=C[N+](=O)[O-])NCCSCc1csc(CN(C)C)n1 [nizatidine]
- effectiveness as maintenance therapy versus famotidine (reflux esophagitis): more effective H2RA than famotidine

Structure (SMILES): CC(=O)Nc1ccc(O)cc1 [Acetaminophen]
- duration of effects (pain or fever; in vivo): between two and four hours

Structure (SMILES): COc1ccc2cc([C@H](C)C(=O)O)ccc2c1 [Naproxen]
- suppression of platelet thromboxane (platelet thromboxane): near-complete suppression
- associated risk of stroke compared with ibuprofen (risk of stroke): roughly 50%

Structure (SMILES): NC(N)=Nc1nc(CSCCC(N)=NS(N)(=O)=O)cs1 [famotidine]
- times more potent than cimetidine (histamine H2 receptors): ~20 times
- times more potent than nizatidine (histamine H2 receptors): approximately 7.5 times
- times more potent than ranitidine (histamine H2 receptors): approximately 7.5 times

Structure (SMILES): CN1[C@@H]2C[C@@H](OC(=O)[C@H](CO)c3ccccc3)C[C@H]1[C@@H]1O[C@@H]12 [Scopolamine]
- duration of effectiveness of patch (motion sickness): three days

Structure (SMILES): CC(=O)Oc1ccccc1C(=O)O [Aspirin, acetylsalicylic acid]
- time until effects begin (pain or fever; for pain or fever): ≤ 30 min
